Columns and labels:
[1] = tested on: larvae of the mustard beetle (Phaedon cochleariae); test: Phaedon cochleariae spray test (PHAECO); type: in vivo; conditions: Chinese cabbage leaf discs, after 7 days
Summary of the method: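 Kill of mustard beetle larvae is read as % mortality 7 days after spraying. Spray liquid: active compound in acetone plus dimethylformamide, brought up with water holding 1000 ppm alkylaryl polyglycol ether emulsifier and diluted further in emulsifier-water.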

[2] = tested on: engorged adult female cattle ticks (Boophilus microplus); test: Boophilus microplus injection test (BOOPMI Inj); type: in vivo; conditions: application rate 20 μg/animal; injection into abdomen; assessed after 7 days
Summary of the method: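 Efficacy is read at 7 days as fertile egg laying (100% = no fertile eggs laid; 0% = all eggs fertile), with eggs of unclear fertility stored until larvae hatch at about 42 days. Five engorged adult females per dose each receive an abdominal injection of 1 μl compound dissolved in DMSO.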

[3] = tested on: adult houseflies (Musca domestica); test: Musca domestica test (MUSCDO); type: in vivo; conditions: application rate 100 ppm; after 2 days
Summary of the method: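 Groups of 10 adult Musca domestica exposed to a sugar-soaked sponge treated with the water-diluted DMSO preparation of compound at the chosen concentration. Percent kill read at day 2, where 0% means no flies killed and 100% all killed.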

[4] = tested on: greenhouse red spider mite (Tetranychus urticae); test: Tetranychus urticae spray test, OP-resistant (TETRUR); type: in vivo; conditions: bean leaf discs, after 6 days
Summary of the method: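 Percent kill, scored 6 days post-spray (0% = none dead, 100% = all dead), on Phaseolus vulgaris leaf discs infested with every life stage of the OP-resistant spider mite. Compound dissolved in acetone plus DMF, diluted to test concentration with emulsifier-containing water (1000 ppm).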

[5] = tested on: caterpillars of the armyworm (Spodoptera frugiperda); test: Spodoptera frugiperda spray test (SPODFR); type: in vivo; conditions: maize leaf discs, after 7 days
Summary of the method: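 Percent kill read at day 7 on caterpillar-infested maize leaf discs. Discs were first sprayed with aqueous emulsifier-containing (1000 ppm) preparations made from acetone/dimethylformamide solutions, and dried. Scale: 0% none dead, 100% all dead.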

[6] = tested on: L1 larvae of the Australian sheep blowfly (Lucilia cuprina); test: Lucilia cuprina test (LUCICU); type: in vivo; conditions: application rate 100 ppm; after 2 days
Summary of the method: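 Percent mortality read at 2 days; 100% = all larvae killed, 0% = none. Test compound, predissolved in DMSO and water-diluted to the wanted level, was mixed into minced horsemeat holding roughly 20 first-instar larvae.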

[7] = logP determination by HPLC on a reversed-phase column (C18), EEC Directive 79/831 Annex V.A8; type: physicochemical; conditions: HPLC on reversed-phase column (C18), acetonitrile/water with formic acid, EEC Directive 79/831 Annex V.A8
Summary of the method: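 Per EEC 79/831 Annex V.A8, values derive from HPLC retention at 2.0 ml/min and 55° C on a 50*4.6 C18 column. The 10→95% acetonitrile gradient (0.1%/0.09% formic acid) lasted 4.25 min plus a 1.25 min hold; mass detection was by MSD.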

[8] = tested on: adult dog ticks (Rhipicephalus sanguineus); test: Rhipicephalus sanguineus in vitro contact test with adult brown dog ticks (T2); conditions: after 48 h
Summary of the method: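 Acetone solutions coated onto test tube walls and floor, giving 5 μg/cm^2 at 900 ppm. Five to ten adult ticks held per tube in the dark at room temperature for 48 h, then heated at 45-50° C for up to 5 min; efficacy is the percentage of dead or moribund ticks unable to climb away.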

[9] = tested on: adult cat fleas (Ctenocephalides felis); test: Ctenocephalides felis in vitro contact test with adult cat fleas (T1); conditions: after 48 h
Summary of the method: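 Adult cat fleas (Ctenocephalides felis), 5-10 per tube, were exposed to the inner surface of 25 ml test tubes coated with compound in acetone. Tubes were incubated lying flat under ambient conditions. Efficacy was then read by standing tubes upright and knocking the fleas to the floor. Fleas that stayed motionless or moved uncoordinatedly counted as dead or moribund, where 100% means all fleas dead or moribund and 0% means none harmed.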

[10] = tested on: adult cat fleas (Ctenocephalides felis); test: Ctenocephalides felis oral test (CTECFE); type: in vivo; conditions: application rate 100 ppm in citrated cattle blood; after 2 days
Summary of the method: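 Mortality read at 2 days as percent of fleas killed. Compound predissolved in DMSO, diluted into citrated cattle blood and offered to roughly 20 unfed adult C. felis via parafilm membrane feeder.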

[11] = tested on: green peach aphid (Myzus persicae); test: Myzus persicae spray test (MYZUPE); type: in vivo; conditions: Chinese cabbage leaf discs, after 6 days
Description: G. Myzus persicae-spray Test (MYZUPE)
Solvents: 78 parts by weight of acetone
• 1.5 parts by weight of dimethylformamide Emulsifier: alkylaryl polyglycol ether
To produce a suitable preparation of active compound, 1 part by weight of active compound is dissolved using the stated parts by weight of solvent and made up with water comprising an emulsifier concentration of 1000 ppm until the desired concentration is reached. To produce further test concentrations, the preparation is diluted with emulsifier-containing water.
Discs of Chinese cabbage leaves (Brassica pekinensis) infested by all stages of the green peach aphid (Myzus persicae) are sprayed with an active compound preparation of the desired concentration.
After 6 days, the efficacy in % is determined 100% here means that all of the aphids have been killed; 0% means that no aphids have been killed.

[12] = tested on: cattle ticks (Boophilus microplus) Parkhurst strain, SP-resistant; test: Boophilus microplus dip test (BOOPMI Dip); type: in vivo; conditions: application rate 100 ppm, assessed after 7 days
Description: B. Boophilus microplus-dip Test (BOOPMI Dip)
Test animals: cattle ticks (Boophilus microplus) Parkhurst strain, SP-resistant
Solvent: dimethyl sulphoxide
10 mg of active compound are dissolved in 0.5 ml of dimethyl sulphoxide. For the purpose of preparing a suitable formulation, the active compound solution is diluted with water to the concentration desired in each case.
This active compound preparation is pipetted into tubes. 8-10 adult engorged female cattle ticks (Boophilus microplus) are transferred into a further tube with holes. The tube is immersed into the active compound formulation, and all ticks are completely wetted. After the liquid has run out, the ticks are transferred on filter discs into plastic dishes and stored in a climate-controlled room.
The activity is assessed after 7 days by laying of fertile eggs. Eggs whose fertility is not visible from the outside are stored in a climate-controlled cabinet until the larvae hatch after about 42 days. An efficacy of 100% means that none of the ticks has laid any fertile eggs; 0% means that all eggs are fertile.

Cn1nc(C(F)(F)C(F)(F)F)c(C(F)(F)F)c1-n1cc(-c2ccc(Cl)c(C(=O)NC3CSC3)c2)cn1 [Ic-28]
efficacy in % ([1]; application rate 100 g/ha): 100%
efficacy (laying of fertile eggs) [2]: 100%
efficacy (kill in %) [3]: 100%
efficacy in % ([4]; application rate 100 g/ha): 100%
efficacy in % ([5]; application rate 100 g/ha): 100%
efficacy (kill in %) [6]: 100%
logP [7]: 4.09
efficacy (dead or moribund ticks) ([8]; application rate 5 μg/cm^2): 100%
efficacy (dead or moribund fleas) ([9]; application rate 1 μg/cm^2): 100%
efficacy (dead or moribund fleas) ([9]; application rate 5 μg/cm^2): 100%
efficacy (kill in %) [10]: 100%
efficacy in % ([11]; application rate 100 g/ha): 90%

Cn1nc(C(F)(F)C(F)(F)F)c(C(F)(F)F)c1-n1cc(-c2ccc(Cl)c(C(=O)NC3(C(N)=O)CC3)c2)cn1 [Ic-29]
efficacy in % ([1]; application rate 100 g/ha): 100%
efficacy (laying of fertile eggs) [2]: 100%
efficacy (kill in %) [3]: 100%
efficacy in % ([5]; application rate 100 g/ha): 100%
efficacy (kill in %) [6]: 100%
logP [7]: 3.07
efficacy (dead or moribund fleas) ([9]; application rate 1 μg/cm^2): 100%
efficacy (dead or moribund fleas) ([9]; application rate 5 μg/cm^2): 100%
efficacy (laying of fertile eggs) [12]: 80%
efficacy (kill in %) [10]: 100%

Cn1nc(C(F)(F)C(F)(F)F)c(C(F)(F)F)c1-n1cc(-c2cc(C(=O)NC3CC3)ccc2F)cn1 [Ic-41]
efficacy in % ([1]; application rate 500 g/ha): 100%
efficacy (laying of fertile eggs) [2]: 100%
efficacy (kill in %) [3]: 100%
efficacy in % ([4]; application rate 500 g/ha): 100%
efficacy in % ([5]; application rate 500 g/ha): 100%
efficacy (kill in %) [6]: 100%
efficacy (dead or moribund fleas) ([9]; application rate 1 μg/cm^2): 100%
efficacy (dead or moribund fleas) ([9]; application rate 5 μg/cm^2): 100%
efficacy (kill in %) [10]: 100%
efficacy in % ([11]; application rate 500 g/ha): 100%

Cn1nc(C(F)(F)C(F)(F)F)c(C(F)(F)F)c1-n1cc(-c2cc(F)c(F)c(C(=O)NC3CC3)c2)cn1 [Ic-55]
efficacy in % ([1]; application rate 500 g/ha): 100%
efficacy (laying of fertile eggs) [2]: 100%
efficacy (kill in %) [3]: 100%
efficacy in % ([4]; application rate 500 g/ha): 80%
efficacy in % ([5]; application rate 500 g/ha): 100%
efficacy (kill in %) [6]: 100%
efficacy (kill in %) [10]: 100%
efficacy in % ([11]; application rate 500 g/ha): 100%

Cn1nc(C(F)(F)C(F)(F)F)c(C(F)(F)F)c1-n1cc(-c2cncc(C(=O)NC3CC3)c2)cn1 [Ic-70]
efficacy in % ([1]; application rate 500 g/ha): 100%
efficacy (laying of fertile eggs) [2]: 100%
efficacy (kill in %) [3]: 100%
efficacy in % ([5]; application rate 500 g/ha): 100%
efficacy (kill in %) [6]: 100%
efficacy (dead or moribund ticks) ([8]; application rate 1 μg/cm^2): 100%
efficacy (dead or moribund ticks) ([8]; application rate 5 μg/cm^2): 100%
efficacy (dead or moribund fleas) ([9]; application rate 1 μg/cm^2): 100%
efficacy (dead or moribund fleas) ([9]; application rate 5 μg/cm^2): 100%
efficacy (kill in %) [10]: 100%
efficacy in % ([11]; application rate 500 g/ha): 90%

Cn1nc(C(F)(F)C(F)(F)F)c(C(F)(F)F)c1-n1cc(-c2cncc(C(=O)NC3(C#N)CC3)c2)cn1 [Ic-71]
efficacy in % ([1]; application rate 500 g/ha): 100%
efficacy (laying of fertile eggs) [2]: 100%
efficacy (kill in %) [3]: 80%
efficacy in % ([4]; application rate 500 g/ha): 100%
efficacy in % ([5]; application rate 500 g/ha): 100%
efficacy (kill in %) [6]: 100%
efficacy (dead or moribund ticks) ([8]; application rate 1 μg/cm^2): 80%
efficacy (dead or moribund ticks) ([8]; application rate 5 μg/cm^2): 100%
efficacy (dead or moribund fleas) ([9]; application rate 1 μg/cm^2): 100%
efficacy (dead or moribund fleas) ([9]; application rate 5 μg/cm^2): 100%
efficacy (kill in %) [10]: 100%
efficacy in % ([11]; application rate 500 g/ha): 100%
